# Reference: patent US20130030017A1, “QUINOLINE DERIVATIVES AS ANTIBACTERIAL AGENTS” (priority 2005, published 2013)
# Assays:
# Format in all cases: cell-based
# [1] = tested on: Enterococcus faecalis (ATCC29212); assay: Microtitre plate assay, IC90 determination (EFA 29212); conditions: 90% inhibitory concentration for bacterial growth, 37° C., resazurin fluorescence; for IC90: Enterococcus faecalis, ATCC29212, 24 h; for IC90 EFA 29212: 24 hours
# Procedure: (§1) The bacteria used in this study were grown overnight in flasks containing 100 ml Mueller-Hinton Broth (Becton Dickinson—cat. no. 275730) in sterile de-ionized water, with shaking, at 37° C. Stocks (0.5 ml/tube) were stored at −70° C. until use. Bacteria titrations were performed in microtiter plates and colony forming units (CFUs) were determined. In general, an inoculum level of approximately 100 CFUs was used for susceptibility testing.
# (§2) Flat-bottom, sterile 96-well plastic microtiter plates were filled with 180 μl of sterile deionized water, supplemented with 0.25% BSA. Subsequently, stock solutions (7.8× final test concentration) of compounds were added in 45 μl volumes in column 2 Serial five-fold dilutions (45 μl in 180 μl) were made directly in the microtiter plates from column 2 to reach column 11. Untreated control samples with (column 1) and without (column 12) inoculum were included in each microtiter plate. Depending on the bacteria type, approximately 10 to 60 CFU per well of bacteria inoculum (100 TCID50), in a volume of 100 μl in 2.8× Mueller-Hinton broth medium, was added to the rows A to H, except column 12. The same volume of broth medium without inoculum was added to column 12 in row A to H. The cultures were incubated at 37° C. for 24 hours under a normal atmosphere (incubator with open air valve and continuous ventilation). At the end of incubation, one day after inoculation, the bacterial growth was quantitated fluorometrically. Therefore resazurin (0.6 mg/ml) was added in a volume of 20 μl to all wells 3 hours after inoculation, and the plates were re-incubated overnight. A change in colour from blue to pink indicated the growth of bacteria. The fluorescence was read in a computer-controlled fluorometer (Cytofluor Biosearch) at an excitation wavelength of 530 nm and an emission wavelength of 590 nm. The % growth inhibition achieved by the compounds was calculated according to standard methods. The IC90 (expressed in μg/ml) was defined as the 90% inhibitory concentration for bacterial growth.
# [2] = tested on: Pseudomonas aeruginosa (ATCC27853); assay: Microtitre plate assay, IC90 determination (PAE 27853); conditions: 90% inhibitory concentration for bacterial growth, 37° C., resazurin fluorescence; for IC90: Pseudomonas aeruginosa, ATCC27853, 24 h; for IC90 PAE 27853: 24 hours
# Procedure: as §1, §2
# [3] = tested on: Streptococcus pneumoniae (ATCC6305); assay: Microtitre plate assay, IC90 determination (SPN 6305); conditions: 90% inhibitory concentration for bacterial growth, 37° C., resazurin fluorescence; for IC90 SPN 6305: 24 hours; for IC90: Streptococcus pneumoniae, ATCC6305, 24 h
# Procedure: as §1, §2
# [4] = tested on: Streptococcus pyogens (ATCC8668); assay: Microtitre plate assay, IC90 determination (SPY 8668); conditions: 90% inhibitory concentration for bacterial growth, 37° C., resazurin fluorescence; for IC90: Streptococcus, ATCC8668, 24 h; for IC90 SPY 8668: 24 hours
# Procedure: as §1, §2
# [5] = tested on: Staphylococcus aureus (ATCC29213); assay: Microtitre plate assay, IC90 determination (STA 29213); conditions: 90% inhibitory concentration for bacterial growth, 37° C., resazurin fluorescence; for IC90 STA 29213: 24 hours; for IC90: Staphylococcus aureus, ATCC29213, 24 h
# Procedure: as §1, §2
IC90 [1] [µg/mL],IC90 [2] [µg/mL],IC90 SPN 6305 [3] [µg/mL],IC90 [4] [µg/mL],IC90 STA 29213 [5] [µg/mL],IC90 [5] [µg/mL],IC90 EFA 29212 [1] [µg/mL],IC90 PAE 27853 [2] [µg/mL],IC90 SPY 8668 [4] [µg/mL],IC90 [3] [µg/mL],SMILES
43.7,43.7,3.9,8.7,11.0,,,,,,CSc1nc2ccc(Br)cc2cc1C(c1ccccc1)C(O)(CCc1ccccc1)CCN(C)C (stereo not drawn) [Compound 11]
59.2,59.2,3.7,9.4,,59.2,,,,,COc1nc2ccc(Br)cc2cc1C(c1ccccc1)C(O)(CCc1ccc(F)cc1)CCN1CCCCC1 (stereo not drawn) [Compound 35]
,,2.1,,10.7,,19.0,8.5,21.4,,COc1nc2ccc(-c3cccs3)cc2cc1C(c1ccccc1)C(O)(CCc1ccccc1)CCN(C)C (racemic) [Compound 63]
,,1.5,,7.4,,9.3,1.9,1.9,,COc1nc2ccc(Br)cc2cc1C(c1ccc(Cl)cc1)C(O)(CCc1cccc(F)c1)CCN(C)C (stereo not drawn) [Compound 78]
37.7,2.1,,1.9,,9.5,,,,0.5,COc1ccccc1CCC(O)(CCN(C)C)C(c1ccc(Cl)cc1)c1cc2cc(Br)ccc2nc1OC (stereo not drawn) [Compound 88]
1.8,1.8,,1.5,,1.8,,,,0.8,CN(C)CCC(O)(CCc1ccccc1)C(c1ccc(Cl)cc1)c1cc2cc(Br)ccc2nc1N(C)C (stereo not drawn) [Compound 33]
54.8,54.8,,43.5,,2.2,,,,1.7,COc1nc2ccc(Br)cc2cc1C(c1cccc(C)c1)C(O)(CCc1ccccc1)CCN(C)C (stereo not drawn) [Compound 71]
,,2.2,,19.4,,10.9,2.2,2.2,,COc1nc2cc(C)c(Br)cc2cc1C(c1ccccc1)C(O)(CCc1ccccc1)CCN(C)C (racemic) [Compound 16]
,,0.5,1.8,,1.8,9.0,4.0,,,COc1nc2ccc(Br)cc2cc1C(c1cccc(C)c1)C(O)(CCc1ccc(F)cc1)CCN(C)C (stereo not drawn) [Compound 83]
,1.9,0.4,1.9,,1.9,9.5,,,,COc1ccc(CCC(O)(CCN(C)C)C(c2ccc(Cl)cc2)c2cc3cc(Br)ccc3nc2OC)cc1 (stereo not drawn) [Compound 22]
9.3,1.9,0.6,1.9,1.9,,,,,,COc1nc2ccc(Br)cc2cc1C(c1cccc(Cl)c1)C(O)(CCc1ccc(F)cc1)CCN(C)C (stereo not drawn) [Compound 81]
11.6,9.2,2.3,5.2,9.2,,,,,,COc1nc2ccc(Br)cc2cc1C(c1ccc(Cl)cc1)C(O)(CCc1ccc(C)cc1)CCN(C)C (stereo not drawn) [Compound 87]
58.4,9.3,0.4,1.9,58.4,,,,,,CSc1nc2ccc(Br)cc2cc1C(c1ccc(Cl)cc1)C(O)(CCc1ccccc1)CCN(C)C (stereo not drawn) [Compound 31]
,,2.3,,2.3,,56.8,56.8,56.8,,COc1nc2ccc(Br)cc2cc1C(c1cccc(Cl)c1)C(O)(CCc1ccccc1)CCN(C)C (stereo not drawn) [Compound 67]
,,2.3,,1.8,,1.8,1.8,1.8,,COc1nc2ccc(Br)cc2cc1C(c1cccc(C)c1)C(O)(CCc1ccc(F)cc1)CCN(C)C (stereo not drawn) [Compound 82]
42.2,42.2,,16.8,,1.7,,,,1.7,COc1nc2ccc(-c3cccnc3)cc2cc1C(c1ccccc1)C(O)(CCc1ccccc1)CCN(C)C (stereo not drawn) [Compound 36]
58.6,46.5,,46.5,,9.3,,,,2.3,COc1nc2ccc(Br)cc2cc1C(c1ccc(Cl)cc1)C(O)(CCc1ccc(F)cc1)CCN(C)C (stereo not drawn) [Compound 79]
,,2.2,,1.7,,43.8,43.8,43.8,,COc1nc2ccc(Br)cc2cc1C(c1ccccc1)C(O)(CCc1cccc(F)c1)CCN(C)C (racemic) [Compound 48]
,,0.4,,2.5,,2.2,0.7,2.0,,COc1nc2ccc(Br)cc2cc1C(c1ccccc1)C(O)(CCc1cccc(OC(F)(F)F)c1)CCN(C)C (racemic) [Compound 45]
56.8,,0.7,56.8,,2.3,,11.3,,,COc1nc2ccc(Br)cc2cc1C(c1cccc(Cl)c1)C(O)(CCc1ccccc1)CCN(C)C (stereo not drawn) [Compound 68]
58.2,46.2,,46.2,,4.6,,,,2.1,COc1ccc(C(c2cc3cc(Br)ccc3nc2OC)C(O)(CCc2ccc(F)cc2)CCN(C)C)cc1 (stereo not drawn) [Compound 84]
,,2.2,,1.7,,43.5,43.5,43.5,,COc1nc2ccc(Br)cc2cc1C(c1cccc(C)c1)C(O)(CCc1ccccc1)CCN(C)C (stereo not drawn) [Compound 72]
,,1.9,,9.3,,8.3,1.9,3.3,,COc1nc2ccc(Br)cc2cc1C(c1cccc(Cl)c1)C(O)(CCc1ccc(F)cc1)CCN(C)C (stereo not drawn) [Compound 80]
,,1.9,,7.4,,37.2,37.2,37.2,,COc1nc2ccc(C)cc2cc1C(c1ccccc1)C(O)(CCc1ccccc1)CCN(C)C (stereo not drawn) [Compound 2]
,1.9,,1.9,1.9,,3.7,,,0.8,COc1nc2ccc(Br)cc2cc1C(c1ccc(Cl)cc1)C(O)(CCc1cccc(F)c1)CCN(C)C (stereo not drawn) [Compound 77]

SMILES,IC90 [1] [µg/mL],IC90 [2] [µg/mL],IC90 SPN 6305 [3] [µg/mL],IC90 [4] [µg/mL],IC90 STA 29213 [5] [µg/mL],IC90 [5] [µg/mL],IC90 EFA 29212 [1] [µg/mL],IC90 PAE 27853 [2] [µg/mL],IC90 SPY 8668 [4] [µg/mL],IC90 [3] [µg/mL]
COc1nc2ccc(Br)cc2cc1C(c1ccccc1)C(O)(CCc1ccccc1)CCN(C)C (stereo not drawn) [Compound 19],,,2.1,,8.5,,1.7,1.7,1.7,
COc1nc2ccc(Br)cc2cc1C(c1ccccc1)C(O)(CCc1ccc(F)cc1)CCN(C)C (stereo not drawn) [Compound 28],,,0.9,,1.7,,3.9,3.9,3.9,
COc1nc2ccc(Br)cc2cc1C(c1ccccc1)C(O)(CCc1ccccc1)CCN(C)C (stereo not drawn) [Compound 18],,,2.1,,8.5,,10.6,10.6,8.5,
COc1nc2ccc(Br)cc2cc1C(c1ccccc1)C(O)(CCc1ccc(C)cc1)CCN(C)C (racemic) [Compound 52],,,1.4,,6.9,,1.7,1.7,1.7,
COc1nc2ccc(Br)cc2cc1C(c1ccccc1)C(O)(CCc1ccc(F)cc1)CCN(C)C (racemic) [Compound 49],,,2.2,,11.0,,43.8,43.8,43.8,
